Results as given in patent publication US20070254023A1, “Perorally Administrable Antimicrobial Composition” (priority 2004, published 2007).

System: bifidobacteria
Assay: Effect of peroral administration on bifidobacteria of the gut in CBA mice
Format: in vivo
Settings: ten-day peroral course, tetracycline 750 mg/kg
Text: Comparative experimental trials of the effect of peroral administration of antibiotics and an antibacterial composition comprising an antibiotic and lactulose on gut organisms and liver condition in CBA mice.
Models of experimental pathology caused by peroral administration of ampicillin and tetracycline in large doses were used.

Compound: CN(C)[C@@H]1C(O)=C(C(N)=O)C(=O)[C@@]2(O)C(O)=C3C(=O)c4c(O)cccc4[C@@](C)(O)[C@H]3C[C@@H]12 [tetracycline]
- contents of bifidobacteria in the large intestine: reduced the contents of bifidobacteria
